From the supplement of paper PMC10307832

How the values were obtained:
Test in all cases: relative viability (nuclei count vs DMSO), 5 days (fraction); higher = more cells survive
XMD8-85 + Luminespib = compound: CN1CCN(CC1)C2=CC(=C(C=C2)NC3=NC=C4C(=N3)N(C5=CC=CC=C5C(=O)N4C)C)OC [XMD8-85] + CCNC(=O)c1noc(-c2cc(C(C)C)c(O)cc2O)c1-c1ccc(CN2CCOCC2)cc1 [Luminespib] (partner 0.01 µM)
Method in brief: (§1)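 One day after seeding in 1536-well plates, lung cancer cell lines were dosed by pin tool. Dosing was either single-drug or a fixed anchor-drug dose plus five library-drug doses (not always all listed) in √10 steps. After 5 days, nuclei were stained in one fix-and-stain step and counted on 4× images, and relative viability is the nuclei count of treated wells over that of vehicle wells, given as the median of duplicate plates.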

4EGI-1 + Pictilisib = compound: O=C(O)C(Cc1ccccc1[N+](=O)[O-])=NNc1nc(-c2ccc(Cl)c(Cl)c2)cs1 (mixture of isomers) [4EGI-1] + CS(=O)(=O)N1CCN(Cc2cc3nc(-c4cccc5[nH]ncc45)nc(N4CCOCC4)c3s2)CC1 [Pictilisib] (partner 1 µM)
Method in brief: as §1

XMD8-85 + Trametinib = compound: CN1CCN(CC1)C2=CC(=C(C=C2)NC3=NC=C4C(=N3)N(C5=CC=CC=C5C(=O)N4C)C)OC [XMD8-85] + CC(=O)Nc1cccc(-n2c(=O)n(C3CC3)c(=O)c3c(Nc4ccc(I)cc4F)n(C)c(=O)c(C)c32)c1 [Trametinib] (partner 0.02 µM)
Method in brief: as §1

4EGI-1 + Olaparib = compound: O=C(O)C(Cc1ccccc1[N+](=O)[O-])=NNc1nc(-c2ccc(Cl)c(Cl)c2)cs1 (mixture of isomers) [4EGI-1] + O=C(c1cc(Cc2n[nH]c(=O)c3ccccc23)ccc1F)N1CCN(C(=O)C2CC2)CC1 [Olaparib] (partner 8 µM)
Method in brief: as §1

| Cell Line | relative viability (XMD8-85 + Luminespib; first compound 0.08 µM) | relative viability (XMD8-85 + Luminespib; first compound 0.253 µM) | relative viability (XMD8-85 + Luminespib; first compound 0.8 µM) | relative viability (XMD8-85 + Luminespib; first compound 2.53 µM) | relative viability (XMD8-85 + Luminespib; first compound 8 µM) | relative viability (4EGI-1 + Pictilisib; first compound 0.5 µM) | relative viability (4EGI-1 + Pictilisib; first compound 5 µM) | relative viability (4EGI-1 + Pictilisib; first compound 15.81 µM) | relative viability (4EGI-1 + Pictilisib; first compound 50 µM) | relative viability (XMD8-85 + Trametinib; first compound 0.08 µM) | relative viability (XMD8-85 + Trametinib; first compound 0.253 µM) | relative viability (XMD8-85 + Trametinib; first compound 0.8 µM) | relative viability (XMD8-85 + Trametinib; first compound 2.53 µM) | relative viability (XMD8-85 + Trametinib; first compound 8 µM) | relative viability (4EGI-1 + Olaparib; first compound 0.5 µM) | relative viability (4EGI-1 + Olaparib; first compound 5 µM) | relative viability (4EGI-1 + Olaparib; first compound 15.81 µM) | relative viability (4EGI-1 + Olaparib; first compound 50 µM) | relative viability (4EGI-1 + Pictilisib; first compound 1.581 µM) | relative viability (4EGI-1 + Olaparib; first compound 1.581 µM) |
| --- | --- | --- | --- | --- | --- | --- | --- | --- | --- | --- | --- | --- | --- | --- | --- | --- | --- | --- | --- | --- |
| LOU-NH91 | 0.413 | 0.31 | 0.326 | 0.523 | 0.309 | 0.532 | 0.539 | 0.478 | 0.484 | 0.792 | 0.807 | 0.755 | 0.785 | 0.621 | 0.95 | 0.911 | 0.738 | 0.564 | – | – |
| NCI-H441 | 0.299 | 0.333 | 0.4 | 0.356 | 0.231 | 0.517 | 0.455 | 0.447 | 0.19 | 0.4 | 0.427 | 0.463 | 0.494 | 0.234 | 0.654 | 0.597 | 0.315 | 0.192 | 0.414 | 0.425 |
| NCI-H2405 | 0.63 | 0.727 | 0.625 | 0.704 | 0.643 | 0.471 | 0.547 | 0.571 | 0.518 | 0.572 | 0.597 | 0.637 | 0.647 | 0.628 | 0.909 | 0.883 | 0.866 | 0.395 | 0.355 | – |
| SK-LU-1 | 0.193 | 0.207 | 0.207 | 0.191 | 0.165 | 0.628 | 0.618 | 0.541 | 0.416 | 0.425 | 0.469 | 0.53 | 0.508 | 0.367 | 0.484 | 0.439 | 0.431 | 0.224 | 0.648 | 0.448 |
| NCI-H838 | 0.234 | 0.225 | 0.29 | 0.389 | 0.189 | 0.527 | 0.435 | 0.362 | 0.173 | 0.529 | 0.48 | 0.516 | 0.617 | 0.334 | 0.752 | 0.677 | 0.372 | 0.161 | – | 0.752 |
| HCC-15 | 0.481 | 0.479 | 0.295 | 0.336 | 0.302 | 0.921 | 0.755 | 0.728 | 0.574 | 0.396 | 0.315 | 0.408 | 0.408 | 0.287 | 0.716 | 0.634 | 0.676 | 0.517 | 0.705 | 0.691 |
| EPLC-272H | 0.266 | 0.373 | 0.629 | 0.389 | 0.186 | 0.338 | 0.369 | 0.293 | 0.205 | 0.276 | 0.271 | 0.272 | 0.313 | 0.251 | 0.781 | 0.952 | 0.436 | 0.135 | 0.306 | 0.42 |
| NCI-H1755 | 0.672 | 0.414 | 0.344 | 0.482 | 0.342 | 0.604 | 0.459 | 0.398 | 0.235 | 0.801 | 0.857 | 0.745 | 0.876 | 0.758 | 0.936 | 0.858 | 0.78 | 0.616 | 0.477 | 0.811 |
| EMC-BAC-2 | 1.26 | 1.24 | 1.21 | 1.28 | 0.951 | 0.642 | 0.579 | 0.514 | 0.502 | 0.901 | 0.879 | 0.895 | 0.828 | 0.67 | 0.517 | 0.5 | 0.37 | 0.2 | 0.492 | – |
| 201T | 1.06 | 1.1 | 1.02 | 1.03 | 0.936 | 0.702 | 0.707 | 0.638 | 0.603 | 0.718 | 0.746 | 0.738 | 0.681 | 0.617 | 0.859 | 0.869 | 0.777 | 0.675 | 0.655 | 0.753 |
| HARA | 0.927 | 0.726 | 0.749 | 0.528 | 0.387 | 0.48 | 0.46 | 0.375 | 0.266 | 0.9 | 0.78 | 0.578 | 0.21 | 0.33 | 0.848 | 1 | 0.515 | 0.18 | 0.428 | 0.68 |
| LC-2-ad | 1.26 | 0.996 | 1.22 | 0.874 | 0.706 | 0.655 | 0.485 | 0.214 | 0.142 | 0.93 | 0.914 | 0.955 | 0.997 | 0.458 | 0.631 | 0.645 | 0.523 | 0.309 | 0.419 | 0.617 |
| NCI-H661 | 1.06 | 0.952 | 1.01 | 1.04 | 0.806 | 0.368 | 0.391 | 0.336 | 0.231 | 0.548 | 0.536 | 0.583 | 0.653 | 0.43 | 0.765 | 0.584 | 0.454 | 0.336 | 0.344 | 0.637 |
| NCI-H2087 | 0.182 | 0.167 | 0.159 | 0.118 | 0.175 | 1.02 | 0.888 | 0.626 | 0.386 | 0.17 | 0.203 | 0.19 | 0.19 | 0.172 | 0.633 | 0.542 | 0.278 | 0.162 | 0.813 | 0.562 |
| EKVX | 0.911 | 0.905 | 0.588 | 0.877 | 0.876 | 0.443 | 0.442 | 0.262 | 0.405 | 0.56 | 0.327 | 0.437 | 0.47 | 0.374 | 0.838 | 0.862 | 0.692 | 0.592 | 0.371 | – |
| NCI-H650 | 0.892 | 0.862 | 0.773 | 0.82 | 0.639 | 1.13 | 1.09 | 0.969 | 0.723 | 0.904 | 1 | 0.977 | 0.94 | 0.601 | 0.439 | 0.414 | 0.404 | 0.288 | – | – |
